Laboratory results reported in paper PMC6135981 (iScience, 2018).
One block for each molecule: values may come before it.

Experiments:
3D intestinal tissue [1] = conditions: 3D intestine, apical to basal direction
2D Caco-2 monolayers = conditions: 2D Caco-2 model
3D Caco-2 tissues = conditions: 3D Caco-2 model
in vitro = conditions: human
P-gp [2] = target: T1, P-gp (Homo sapiens, UniProt P08183); test: in vitro; conditions: Efflux ratio (B to A)/(A to B)
[3] = test system: prostaglandin E2 secretion; test: Prostaglandin E2 secretion, 3D intestinal tissue; type: cell-based, human; conditions: all doses, 24-hr treatment
CYP2C9 = CYP2C9 (Homo sapiens, UniProt P11712)
CYP2C9, sequence (P11712 whole entry): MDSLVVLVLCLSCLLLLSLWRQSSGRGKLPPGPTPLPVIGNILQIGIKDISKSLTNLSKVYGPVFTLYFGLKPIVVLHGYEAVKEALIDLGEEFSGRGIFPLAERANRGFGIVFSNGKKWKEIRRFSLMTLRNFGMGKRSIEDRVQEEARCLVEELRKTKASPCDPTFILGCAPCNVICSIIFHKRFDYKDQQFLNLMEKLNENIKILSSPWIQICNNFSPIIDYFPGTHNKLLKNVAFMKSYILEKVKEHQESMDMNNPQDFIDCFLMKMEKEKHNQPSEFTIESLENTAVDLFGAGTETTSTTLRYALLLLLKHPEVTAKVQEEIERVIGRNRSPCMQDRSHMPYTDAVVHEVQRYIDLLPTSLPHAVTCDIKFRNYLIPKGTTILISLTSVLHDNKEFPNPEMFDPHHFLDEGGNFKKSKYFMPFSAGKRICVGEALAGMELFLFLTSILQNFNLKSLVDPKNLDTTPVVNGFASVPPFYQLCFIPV

[4] = test system: TNF-α/nuclear factor (NF)-κB pathway; test: Gene expression of TNF-α/NF-κB pathway targets, 3D intestinal tissue; type: cell-based, human; conditions: TNF-α for 24 hr
3D intestinal tissue [5] = type: cell-based, human; conditions: 24-hr treatment
3D intestinal tissue [6] = test: LDH release after toxicant treatment, 3D intestinal tissue; type: cell-based, human; conditions: TNF-α for 24 hr
BCRP = target: T2, BCRP (Homo sapiens, UniProt Q9UNQ0); test: in vitro; conditions: Efflux ratio (B to A)/(A to B), 3D intestinal tissue, dual inhibition with Ko143 and zosuquidar
T2 sequence (Q9UNQ0 1-655): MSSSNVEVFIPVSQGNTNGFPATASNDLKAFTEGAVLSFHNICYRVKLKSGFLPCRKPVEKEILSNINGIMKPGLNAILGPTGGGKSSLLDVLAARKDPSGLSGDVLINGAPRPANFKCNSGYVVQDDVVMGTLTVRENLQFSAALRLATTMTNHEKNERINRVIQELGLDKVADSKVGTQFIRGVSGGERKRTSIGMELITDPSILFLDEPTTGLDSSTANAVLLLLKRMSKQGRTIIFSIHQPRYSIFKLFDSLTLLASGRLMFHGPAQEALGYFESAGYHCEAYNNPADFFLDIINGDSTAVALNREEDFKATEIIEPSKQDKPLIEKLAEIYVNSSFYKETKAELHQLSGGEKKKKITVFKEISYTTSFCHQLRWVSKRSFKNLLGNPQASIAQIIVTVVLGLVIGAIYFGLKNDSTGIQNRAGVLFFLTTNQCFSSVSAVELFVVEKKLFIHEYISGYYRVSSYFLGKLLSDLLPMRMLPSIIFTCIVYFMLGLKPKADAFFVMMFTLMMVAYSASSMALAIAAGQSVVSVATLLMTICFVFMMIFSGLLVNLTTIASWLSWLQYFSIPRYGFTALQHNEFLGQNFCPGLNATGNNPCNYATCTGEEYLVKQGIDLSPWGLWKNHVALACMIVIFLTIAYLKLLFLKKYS

P-gp [7] = target: T1, P-gp; conditions: 3D intestinal tissue

T1 sequence (P08183 whole entry): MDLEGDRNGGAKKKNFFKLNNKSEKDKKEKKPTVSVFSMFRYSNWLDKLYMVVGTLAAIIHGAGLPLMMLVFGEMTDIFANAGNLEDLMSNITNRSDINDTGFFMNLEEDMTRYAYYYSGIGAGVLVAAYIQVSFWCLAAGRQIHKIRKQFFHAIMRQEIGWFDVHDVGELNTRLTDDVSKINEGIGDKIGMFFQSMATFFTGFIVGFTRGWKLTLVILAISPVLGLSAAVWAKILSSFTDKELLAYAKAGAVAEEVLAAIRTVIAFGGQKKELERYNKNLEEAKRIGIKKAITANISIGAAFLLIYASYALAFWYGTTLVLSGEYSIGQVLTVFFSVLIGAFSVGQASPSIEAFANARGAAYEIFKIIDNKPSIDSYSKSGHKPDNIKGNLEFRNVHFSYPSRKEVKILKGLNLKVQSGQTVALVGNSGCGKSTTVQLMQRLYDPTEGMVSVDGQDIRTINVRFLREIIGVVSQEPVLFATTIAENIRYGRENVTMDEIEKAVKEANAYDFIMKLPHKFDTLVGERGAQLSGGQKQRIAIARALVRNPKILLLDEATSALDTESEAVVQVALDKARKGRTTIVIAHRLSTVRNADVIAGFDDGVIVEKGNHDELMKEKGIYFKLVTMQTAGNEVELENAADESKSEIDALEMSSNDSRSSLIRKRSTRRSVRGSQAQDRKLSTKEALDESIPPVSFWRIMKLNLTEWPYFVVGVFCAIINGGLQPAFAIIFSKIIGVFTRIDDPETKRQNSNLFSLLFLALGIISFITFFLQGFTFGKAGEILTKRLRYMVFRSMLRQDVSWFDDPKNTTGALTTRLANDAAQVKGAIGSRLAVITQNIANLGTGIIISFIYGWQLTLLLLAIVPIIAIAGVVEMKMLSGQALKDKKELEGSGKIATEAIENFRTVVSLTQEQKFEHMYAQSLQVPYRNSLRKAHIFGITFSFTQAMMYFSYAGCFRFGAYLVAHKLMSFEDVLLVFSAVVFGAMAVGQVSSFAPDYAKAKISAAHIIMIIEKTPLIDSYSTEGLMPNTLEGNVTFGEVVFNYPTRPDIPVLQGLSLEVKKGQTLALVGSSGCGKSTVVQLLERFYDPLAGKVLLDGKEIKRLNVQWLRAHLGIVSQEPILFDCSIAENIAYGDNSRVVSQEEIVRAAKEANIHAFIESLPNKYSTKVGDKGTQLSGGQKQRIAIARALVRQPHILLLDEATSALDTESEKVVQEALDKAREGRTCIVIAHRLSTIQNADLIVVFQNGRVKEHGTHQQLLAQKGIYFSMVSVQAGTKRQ

Molecule: O=C1c2c(O)ccc(O)c2C(=O)c2c(NCCNCCO)ccc(NCCNCCO)c21 [mitoxantrone]
Papp (in vitro): 0.2 ± 0.03 ×10⁻⁶ cm/s

Molecule: CC(=O)N1CCN(c2ccc(OCC3COC(Cn4ccnc4)(c4ccc(Cl)cc4Cl)O3)cc2)CC1 (centres unmarked) [ketoconazole]
Effect on CYP3A4 activity (midazolam metabolite formation) (CYP3A4): specific inhibition

Molecule: COc1ccc2c(c1)c(CC(=O)O)c(C)n2C(=O)c1ccc(Cl)cc1 [indomethacin]
Prostaglandin E2 secretion [3]: inhibition of prostaglandin E2 secretion

Molecule: tumor necrosis factor alpha [TNF-α]
Gene expression of IL-6, IL-8, CCL2, CXCL10, ICAM1, and TNF-α [4]: upregulated
Epithelial morphology (histology) (3D intestinal tissue [5]): altered the epithelial morphology
LDH release (3D intestinal tissue [6]): significant increase

Molecule: CC[C@@]1(O)C(=O)OCc2c1cc1n(c2=O)Cc2cc3c(CN(C)C)c(O)ccc3nc2-1 [topotecan]
Papp (in vitro): 3.1 ± 0.63 ×10⁻⁶ cm/s
Permeability class (3D intestinal tissue [1]): moderate
efflux ratio (BCRP): 1.4

Second part, the molecule after the results:

Papp (3D intestinal tissue [1]): 0.45 ± 1.5 ×10⁻⁶ cm/s
Papp (2D Caco-2 monolayers): 0.46 ± 0.25 ×10⁻⁶ cm/s
Permeability (Papp) (IMF tissue alone): 163 ± 29 ×10⁻⁶ cm/s
Papp (3D Caco-2 tissues): 1.05 ± 0.1 ×10⁻⁶ cm/s
Molecule: lucifer yellow

Papp (in vitro): 8.53 ± 2.02 ×10⁻⁶ cm/s
efflux ratio (P-gp [2]): > 2
Permeability class (3D intestinal tissue [1]): moderate
Molecule: C[C@H]1O[C@@H](O[C@H]2[C@@H](O)C[C@H](O[C@H]3[C@@H](O)C[C@H](O[C@H]4CC[C@@]5(C)[C@H](CC[C@@H]6[C@@H]5C[C@@H](O)[C@]5(C)[C@@H](C7=CC(=O)OC7)CC[C@]65O)C4)O[C@@H]3C)O[C@@H]2C)C[C@H](O)[C@@H]1O [digoxin]

Effect on CYP2C9 activity (luminogenic P450 substrate conversion) (CYP2C9): significantly inhibited
Molecule: Nc1ccc(S(=O)(=O)Nc2ccnn2-c2ccccc2)cc1 [sulfaphenazole]

Papp (in vitro): 14.8 ± 1.96 ×10⁻⁶ cm/s
Permeability class (3D intestinal tissue [1]): high
Molecule: CC(C)NCC(O)COc1cccc2ccccc12 (centres unmarked) [propranolol]

Effect on B to A transport of digoxin (P-gp [7]): decreased the rate of B to A transport
Molecule: O[C@@H](COc1cccc2ncccc12)CN1CCN([C@@H]2c3ccccc3[C@@H]3[C@H](c4ccccc42)C3(F)F)CC1 [zosuquidar]
